Laboratory results reported in ChEMBL document CHEMBL1201862, “PubChem BioAssay data set” (2004).
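Tested at 5 concentrations; 48 h exposure; 96-well plates; endpoints linearly interpolated, else capped at highest concentration. The concentration for 50% growth inhibition is given as GI50.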 Active and inactive are the calls of the source. Rule as the data show it: active = GI50 up to about 1.1 µM and inactive = higher.

Assays:
Assay in all cases: growth of human tumour cells (NCI), 48 h
[1] = tested on: SR
[2] = tested on: HT-29
[3] = tested on: KM12
[4] = tested on: A498
[5] = tested on: LXFL 529
[6] = tested on: RPMI-8226
[7] = tested on: SK-MEL-2
[8] = tested on: M14
[9] = tested on: SF-268
[10] = tested on: SF-295
[11] = tested on: HCT-116
[12] = tested on: HCT-15
[13] = tested on: KM-20L2
[14] = tested on: 786-0
[15] = tested on: NCI-H460
[16] = tested on: SNB-78
[17] = tested on: UACC-257
[18] = tested on: RXF 631
[19] = tested on: M19-MEL
[20] = tested on: U-251
[21] = tested on: SW-620
[22] = tested on: OVCAR-4
[23] = tested on: TK-10
[24] = tested on: MOLT-4
[25] = tested on: OVCAR-3
[26] = tested on: K562
[27] = tested on: SK-OV-3
[28] = tested on: SF-539
[29] = tested on: NCI-H226
[30] = tested on: DU-145
[31] = tested on: HOP-92
[32] = tested on: HL-60
[33] = tested on: Malme-3M
[34] = tested on: SK-MEL-28
[35] = tested on: XF498
[36] = tested on: UO-31
[37] = tested on: SNB-75
[38] = tested on: DLD-1
[39] = tested on: HCC 2998
[40] = tested on: SN12C
[41] = tested on: SK-MEL-5
[42] = tested on: LOX IMVI
[43] = tested on: CAKI-1
[44] = tested on: A549
[45] = tested on: UACC-62
[46] = tested on: NCI-H522
[47] = tested on: COLO 205
[48] = tested on: OVCAR-8
[49] = tested on: SNB-19
[50] = tested on: NCI-H23
[51] = tested on: IGROV-1
[52] = tested on: ACHN
[53] = tested on: RXF 393
[54] = tested on: HOP-18
[55] = tested on: OVCAR-5
[56] = tested on: CCRF-CEM
[57] = tested on: HOP-62
[58] = tested on: MDA-MB-435
[59] = tested on: MDA-MB-231
[60] = tested on: PC-3
[61] = tested on: DMS-114
[62] = tested on: T47D
[63] = tested on: MDA-N
[64] = tested on: MCF7
[65] = tested on: Hs-578T
[66] = tested on: NCI/ADR-RES
[67] = tested on: EKVX
[68] = tested on: DMS-273

Structure (SMILES): C=CCOCCCC(=O)C(=[N+]=[N-])C(=O)OC
- GI50 [1]: > 100 µM (inactive)
- GI50 [2]: > 100 µM (inactive)
- GI50 [3]: > 100 µM (inactive)
- GI50 [4]: > 100 µM (inactive)
- GI50 [5]: > 100 µM (inactive)
- GI50 [6]: > 100 µM (inactive)
- GI50 [7]: > 100 µM (inactive)
- GI50 [8]: > 100 µM (inactive)
- GI50 [9]: > 100 µM (inactive)
- GI50 [10]: > 100 µM (inactive)
- GI50 [11]: > 100 µM (inactive)
- GI50 [12]: > 100 µM
- GI50 [13]: > 100 µM (inactive)
- GI50 [14]: > 100 µM (inactive)
- GI50 [15]: > 100 µM (inactive)
- GI50 [16]: > 100 µM (inactive)
- GI50 [17]: > 100 µM (inactive)
- GI50 [18]: > 100 µM (inactive)
- GI50 [19]: > 100 µM (inactive)
- GI50 [20]: > 100 µM (inactive)
- GI50 [21]: > 100 µM (inactive)
- GI50 [22]: > 100 µM (inactive)
- GI50 [23]: > 100 µM (inactive)
- GI50 [24]: > 100 µM (inactive)
- GI50 [25]: > 100 µM (inactive)
- GI50 [26]: > 100 µM (inactive)
- GI50 [27]: > 100 µM (inactive)
- GI50 [28]: > 100 µM (inactive)
- GI50 [29]: > 100 µM (inactive)
- GI50 [30]: > 100 µM (inactive)
- GI50 [31]: > 100 µM (inactive)
- GI50 [32]: > 100 µM (inactive)
- GI50 [33]: > 100 µM (inactive)
- GI50 [34]: > 100 µM (inactive)
- GI50 [35]: > 100 µM (inactive)
- GI50 [36]: > 100 µM (inactive)
- GI50 [37]: > 100 µM (inactive)
- GI50 [38]: > 100 µM (inactive)
- GI50 [39]: > 100 µM (inactive)
- GI50 [40]: > 100 µM (inactive)
- GI50 [41]: > 100 µM (inactive)
- GI50 [42]: > 100 µM (inactive)
- GI50 [43]: > 100 µM (inactive)
- GI50 [44]: > 100 µM (inactive)
- GI50 [45]: > 100 µM (inactive)
- GI50 [46]: > 100 µM (inactive)
- GI50 [47]: > 100 µM (inactive)
- GI50 [48]: > 100 µM (inactive)
- GI50 [49]: > 100 µM (inactive)
- GI50 [50]: > 100 µM (inactive)
- GI50 [51]: > 100 µM (inactive)
- GI50 [52]: > 100 µM (inactive)
- GI50 [53]: > 100 µM (inactive)
- GI50 [54]: > 100 µM (inactive)
- GI50 [55]: > 100 µM (inactive)
- GI50 [56]: > 100 µM (inactive)

Structure (SMILES): CCOC(=O)Oc1cc2c(c(OC)c1OC)-c1ccc(OC)c(=O)cc1C(NC(C)=O)CC2 (configuration not stated)
- GI50 [1]: < 0.01 µM (active)
- GI50 [57]: 0.0509 µM (active)
- GI50 [2]: 0.0187 µM (active)
- GI50 [3]: 0.0172 µM (active)
- GI50 [4]: 0.0541 µM (active)
- GI50 [5]: < 0.0162 µM (active)
- GI50 [6]: 0.0141 µM (active)
- GI50 [7]: 0.0123 µM (active)
- GI50 [8]: 0.0218 µM (active)
- GI50 [9]: 0.0197 µM (active)
- GI50 [58]: < 0.01 µM (active)
- GI50 [10]: 0.0574 µM (active)
- GI50 [59]: 0.0281 µM (active)
- GI50 [11]: 0.0149 µM (active)
- GI50 [12]: 0.252 µM
- GI50 [13]: 0.0416 µM (active)
- GI50 [14]: 0.0345 µM (active)
- GI50 [60]: 0.0278 µM (active)
- GI50 [15]: 0.0468 µM (active)
- GI50 [61]: 0.0137 µM (active)
- GI50 [16]: 0.0156 µM (active)
- GI50 [17]: 0.0146 µM (active)
- GI50 [18]: 0.0565 µM (active)
- GI50 [19]: < 0.0164 µM (active)
- GI50 [20]: 0.0212 µM (active)
- GI50 [21]: < 0.0122 µM (active)
- GI50 [62]: > 100 µM (inactive)
- GI50 [22]: 11.2 µM (inactive)
- GI50 [23]: 3.78 µM (inactive)
- GI50 [24]: 0.0179 µM (active)
- GI50 [25]: 0.0166 µM (active)
- GI50 [26]: 0.0138 µM (active)
- GI50 [27]: 0.114 µM (active)
- GI50 [28]: 0.0138 µM (active)
- GI50 [63]: < 0.01 µM (active)
- GI50 [29]: 0.183 µM (active)
- GI50 [30]: 0.1 µM (active)
- GI50 [31]: 0.0968 µM (active)
- GI50 [32]: < 0.0118 µM (active)
- GI50 [33]: < 0.015 µM (active)
- GI50 [34]: < 0.215 µM (active)
- GI50 [35]: 0.0432 µM (active)
- GI50 [36]: 5.35 µM (inactive)
- GI50 [64]: < 0.01 µM (active)
- GI50 [37]: 0.0119 µM (active)
- GI50 [39]: 0.0176 µM (active)
- GI50 [40]: 0.034 µM (active)
- GI50 [41]: 0.0116 µM (active)
- GI50 [42]: 0.0153 µM (active)
- GI50 [65]: 0.0619 µM (active)
- GI50 [43]: 0.239 µM (active)
- GI50 [44]: 0.168 µM (active)
- GI50 [45]: 0.0156 µM (active)
- GI50 [46]: 0.014 µM (active)
- GI50 [47]: 0.0185 µM (active)
- GI50 [48]: 0.0286 µM (active)
- GI50 [49]: 0.0277 µM (active)
- GI50 [66]: 9.33 µM (inactive)
- GI50 [50]: 0.0187 µM (active)
- GI50 [51]: 0.0208 µM (active)
- GI50 [52]: 0.398 µM (active)
- GI50 [67]: 19.1 µM (inactive)
- GI50 [53]: < 0.0137 µM (active)
- GI50 [68]: < 0.01 µM (active)
- GI50 [55]: 2.26 µM (inactive)
- GI50 [56]: < 0.0122 µM (active)
